Common to all, as to assay type: cell-based
One test concerns cyclin D1. In words: Cyclin D1 expression after KED compound. The following applies: as a result of RASSF1A induction. How it is done:
(§1) Anticancer effects and activation of a tumor suppressor gene, RASSF1A) KED-3-63-1, KED 3-63-2 and KED 3-81 were assessed.

The test system of another test is DNA synthesis. In words: Inhibition of DNA synthesis / anticancer effects of KED compounds. The note with it: in the assay used (inhibition of DNA synthesis, FIGS. 7A-7D). As for the experimental part: FIGS. 7A-7D. FIGS. 7A-7D show the dose-dependent inhibition of DNA synthesis with KED compounds.
as §1

In a further test the test system is RASSF1A. In words: Activation of tumor suppressor gene RASSF1A by KED compounds. How it is done: as §1

Each structure is given as a SMILES string. “Also recorded” adds a separate entry of the source.

On to `COc1ccc2c(c1)[nH]c1c(C)c3c(cc12)C=CC(C)(CCC=C(C)C)O3` (centres unmarked) [KED-3-63-1], for which the “cyclin D1 expression” value with cyclin D1 is given as “down-regulated”. Further, in the test on DNA synthesis, the anticancer effects entry is reported as “have anti-cancer effects; also recorded: have anticancer effects”. For the same molecule, in the test on RASSF1A, the “induction of RASSF1A” value was “induced RASSF1A”.

For `COc1ccc2c(c1)[nH]c1c(C)c(OCc3ccccc3)ccc12` [KED-3-63-2], the anticancer effects result with DNA synthesis was “does not; also recorded: no anti-cancer effects”.

In the case of `COc1ccc2c(c1)[nH]c1cc(OCc3ccccc3)c(C)cc12` [KED-3-81], the anticancer effects entry in the test with DNA synthesis is recorded as “have anti-cancer effects; also recorded: have anticancer effects”.

Source of the values: patent publication US20100130579A1, “CANCER THERAPY” (Georgetown University, priority 2006, published 2010).
